Data taken from article doi:10.1101/2023.08.10.552651v1 (biorxiv, 2023).

Tests used:
Assay in all cases: isothermal titration calorimetry
Type in all cases: binding
Settings in all cases: Tris-HCl, 150 mM NaCl, pH 7.9-8.0, 20 °C; 30 µM trimer; one-site model
[1] = target: ScSbtB (SbtB) (Synechocystis sp. PCC 6803, UniProt P73954, R46A)
[2] = target: ScSbtB (SbtB) (Synechocystis sp. PCC 6803, UniProt P73954, R43A)
[3] = target: ScSbtB (SbtB) (Synechocystis sp. PCC 6803, UniProt P73954, K40A)
Sequence of ScSbtB (SbtB) (Synechocystis sp. PCC 6803, UniProt P73954, K40A) (P73954 2-110 K40A): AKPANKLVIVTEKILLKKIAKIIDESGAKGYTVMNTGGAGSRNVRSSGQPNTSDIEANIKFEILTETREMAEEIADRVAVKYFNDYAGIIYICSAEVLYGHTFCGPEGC

Sequence of ScSbtB (SbtB) (Synechocystis sp. PCC 6803, UniProt P73954, R43A) (P73954 2-110 R43A): as the sequence (P73954 2-110 K40A) above, with A39K, R42A counted along it
Sequence of ScSbtB (SbtB) (Synechocystis sp. PCC 6803, UniProt P73954, R46A) (P73954 2-110 R46A): as the sequence (P73954 2-110 K40A) above, with A39K, R45A counted along it

Row | Kd [1] [µM] | Kd [2] [µM] | Kd [3] [µM] | Compound
1 | 94.3 | – | – | Nc1ncnc2c1ncn2[C@@H]1O[C@H](COP(=O)(O)O)[C@@H](O)[C@H]1O [AMP]
2 | – | 213 | 357 | Nc1ncnc2c1ncn2[C@@H]1O[C@H](COP(=O)(O)OP(=O)(O)OP(=O)(O)O)[C@@H](O)[C@H]1O [ATP]
3 | 435 | 472 | 877 | Nc1ncnc2c1ncn2[C@@H]1O[C@H](COP(=O)(O)OP(=O)(O)O)[C@@H](O)[C@H]1O [ADP]
